7 compounds from PubChem BioAssay (NCI) can be followed below.

Holding throughout (experiment): inhibition of tumour cell growth, NCI panel, 48 h
In assay [1] the test system is DU-145 prostate.
For assay [2], the system named is HCC-2998 colon.
Assay [3] relates to HOP-92 NSCLC.
Assay [4] has as its system HS 578T breast.
Assay [5] relates to HT29 colon.
The test system of assay [6] is K-562 leukemia.
The test system of assay [7] is MCF7 breast.
The test system of assay [8] is MDA-MB-231 breast.
For assay [9], the system named is OVCAR-5 ovarian.
The test system of assay [10] is OVCAR-8 ovarian.
Assay [11] relates to PC-3 prostate.
Assay [12] has as its system SF-268 CNS.
For assay [13], the system named is SF-295 CNS.
Assay [14] has as its system SK-MEL-2 melanoma.
The test system of assay [15] is SN12C renal.
In assay [16] the test system is T-47D breast.
Assay [17] relates to UACC-257 melanoma.
Assay [18] deals with OVCAR-3 ovarian.
In assay [19] the test system is SK-MEL-28 melanoma.
Assay [20] relates to SK-MEL-5 melanoma.

Structures are written as SMILES.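 Exposure lasted 48 hours, with cells grown in 96-well plates and compounds tested at five concentrations. The concentration for full growth arrest is given as TGI.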 Some results are limits rather than exact numbers.

In the case of `CCCC[Si](CCCC)(CCCC)O[C@@H](/C=C/C(=O)OCC)[C@H](Cc1ccccc1)O[Si](CCCC)(CCCC)CCCC`, the TGI in assay [1], in assay [2], in assay [3], in [4], in assay [5] and in assay [6] was more than 100 µM each time. Moreover, the TGI in assay [7], in assay [8], in assay [9], in assay [10], in [11] and in assay [12] was more than 100 µM in each case. The TGI in assay [13], in assay [14], in assay [15], in assay [16] and in assay [17] was more than 100 µM in each case.

With `COc1ccc2nc(-c3ccc(O)cc3)cn2c1`, the TGI in assay [1], in [3], in assay [4], in assay [5], in assay [6] and in assay [7] was more than 100 µM throughout. The TGI in assay [8], in [18], in assay [9], in assay [10], in [11] and in [12] was more than 100 µM throughout. Moreover, the TGI in assay [13] is more than 100 µM; in assay [14], more than 100 µM; in [19], more than 100 µM; in assay [20] it was 62.6 µM; in [15], more than 100 µM; in assay [16], more than 100 µM.

For the compound `CC[C@]12C=CCN3CCC4(c5cc(N=Nc6ccc([N+](=O)[O-])cc6)c(OC)cc5N(C)[C@H]4[C@@](O)(C(=O)OC)[C@@H]1OC(C)=O)[C@@H]32` (some centres undefined), the TGI is more than 100 µM in assay [1]; 8.62 µM in [3]; 77.8 µM in assay [4]; 23.9 µM in assay [5]; 34.6 µM in assay [6]; more than 100 µM in assay [7]. For the same compound, the TGI is 35.9 µM in assay [8]; 16.8 µM in assay [18]; 28.2 µM in [9]; more than 100 µM in [10]; 46.1 µM in [11]; more than 100 µM in [12]. Further, the TGI was 30.8 µM in assay [13]; 43 µM in assay [14]; more than 100 µM in [19]; 50.1 µM in assay [20]; 59.8 µM in assay [15]; more than 100 µM in [16]. In assay [17], this compound returned a TGI of 56.5 µM.

Take `COc1ccc(N=C2C(=Nc3ccc(OC)cc3)N(c3ccccc3[N+](=O)[O-])C(=S)N2c2ccc(OC)cc2)cc1`: the TGI in [1], in [2], in [3], in [4], in assay [6] and in [7] was more than 100 µM throughout. Moreover, the TGI in [8] is 90.9 µM; in assay [18], more than 100 µM; in assay [9], more than 100 µM; in assay [10] it was more than 100 µM; in [11] it was more than 100 µM; in assay [12], more than 100 µM. The TGI in assay [13], in assay [14], in [19], in [20], in assay [15] and in assay [16] was more than 100 µM in each case.

On to `N=C(N)c1ccc(-c2ccc(-c3ccc(C(=N)N)cc3)o2)cc1`, for which the TGI was more than 100 µM in assay [1]; more than 100 µM in [3]; 56.9 µM in assay [4]; more than 100 µM in [5]; more than 100 µM in assay [6]; more than 100 µM in assay [7]. In addition, the TGI in assay [8] is more than 100 µM; in assay [18], more than 100 µM; in assay [9] it was 99.2 µM; in assay [10], more than 100 µM; in [11] it was more than 100 µM; in [12], more than 100 µM. Further, the TGI in assay [13] was more than 100 µM; in assay [14], 59.2 µM; in assay [19], 71.7 µM; in assay [20] it was 33 µM; in assay [15], 57.3 µM; in [16], 74.9 µM. Further, the TGI in assay [17] was determined as 87.2 µM.

For the compound `Cc1ccc(S(=O)(=O)N/N=C2/CC[C@H](C(C)(C)C)C[C@@H]2C)cc1`, the TGI in [1] stood at 30.3 µM; in [2], 33.5 µM; in assay [3] it was 33.4 µM; in assay [4], 45.1 µM; in [5], 30.7 µM; in assay [6] it was 42.1 µM. Further, the TGI in [7] was 32.8 µM; in assay [8], 43.7 µM; in assay [18], 25.2 µM; in assay [9] it was 32.5 µM; in assay [10], 29.9 µM; in assay [11] it was 36.8 µM. In addition, the TGI in assay [13] came out at 29.2 µM; in assay [14], 32.4 µM; in assay [19], 32.8 µM; in [20], 26.8 µM; in assay [15], 30.4 µM; in assay [16], 25.5 µM. The TGI in assay [17] was 27 µM.

Turning to `O=C(O)C1CCCN1Cc1ccc2c(c1)OCO2` (centres undefined), the TGI in assay [1], in assay [3], in [4], in assay [5], in [6] and in [7] was more than 100 µM throughout. Further, the TGI in assay [8], in assay [18], in [9], in [10], in [11] and in assay [12] was more than 100 µM each time. The TGI in [13], in assay [14], in assay [19], in [20], in assay [15] and in assay [16] was more than 100 µM each time. For the same compound, the TGI in [17] is more than 100 µM.
